The subject of assay [1] is PC3 cells. Nature of the assay: PC3 cell proliferation, 3D activity assay (3D culture, 14 days). The assay is classed as cell-based, human. As to conditions: read-out: 3D inhibitory activity against PC3 cells IC50. How it is done:
(§1) 2D activity assay: 1200 PC3 cells were seeded in a 96-well plate. After overnight adherence culture, A compound serially diluted was added. […] The growth of the cells was evaluated, and the IC50 of the compound inhibiting cell growth was calculated. 3D activity assay: PC3 cells were seeded in a 96-well plate at 1200 cells/well, and 3D culture was performed. 14 days after a compound serially diluted was added, the growth of the cells was measured. The inhibition percentage and IC50 of the compound were calculated compared to the DMSO control group.

In assay [2] the target is FAK recombinant protein (Homo sapiens (Human), UniProt Q05397). Nature of the assay: Inhibitory activity against FAK enzyme (HTRF, TK substrate). The assay is classed as biochemical. How it is done: A compound serially diluted with DMSO was mixed with a FAK recombinant protein. After the mixture was left to stand at room temperature for 10 min, a biotin-labeled TK substrate (TK) and ATP were added. […] The inhibition percentage and IC50 of the compound were calculated compared to the DMSO control group.
Sequence of FAK recombinant protein (Q05397 whole entry): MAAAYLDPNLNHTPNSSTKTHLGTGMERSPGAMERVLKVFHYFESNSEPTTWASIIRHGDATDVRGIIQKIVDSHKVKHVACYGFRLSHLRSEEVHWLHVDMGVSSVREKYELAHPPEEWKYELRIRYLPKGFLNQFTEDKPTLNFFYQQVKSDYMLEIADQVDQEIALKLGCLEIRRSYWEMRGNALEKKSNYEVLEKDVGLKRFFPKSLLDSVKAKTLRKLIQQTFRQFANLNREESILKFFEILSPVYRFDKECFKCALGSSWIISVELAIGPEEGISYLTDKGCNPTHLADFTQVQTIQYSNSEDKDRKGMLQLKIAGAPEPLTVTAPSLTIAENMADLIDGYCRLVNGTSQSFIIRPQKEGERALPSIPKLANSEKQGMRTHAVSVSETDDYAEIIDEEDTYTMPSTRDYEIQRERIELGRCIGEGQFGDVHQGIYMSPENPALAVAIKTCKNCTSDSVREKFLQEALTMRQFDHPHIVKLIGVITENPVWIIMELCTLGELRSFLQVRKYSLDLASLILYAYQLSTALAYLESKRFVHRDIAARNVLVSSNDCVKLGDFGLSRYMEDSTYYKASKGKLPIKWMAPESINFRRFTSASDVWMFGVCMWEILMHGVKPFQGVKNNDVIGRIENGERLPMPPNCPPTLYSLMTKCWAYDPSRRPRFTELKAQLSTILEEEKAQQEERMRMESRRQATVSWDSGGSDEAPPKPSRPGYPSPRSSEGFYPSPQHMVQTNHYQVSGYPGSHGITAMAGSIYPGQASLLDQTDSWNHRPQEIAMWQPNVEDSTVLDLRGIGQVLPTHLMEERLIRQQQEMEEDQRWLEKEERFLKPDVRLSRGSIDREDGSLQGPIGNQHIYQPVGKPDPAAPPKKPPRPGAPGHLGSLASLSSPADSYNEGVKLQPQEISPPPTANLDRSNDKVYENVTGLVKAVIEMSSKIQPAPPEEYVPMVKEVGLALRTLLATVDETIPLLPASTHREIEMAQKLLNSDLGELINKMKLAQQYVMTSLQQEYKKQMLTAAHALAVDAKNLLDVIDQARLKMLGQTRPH
(In TR-FRET formats the signal depends on donor and acceptor labels being close together.)

Assay [3] concerns PC3 cells. The assay is described as follows: PC3 cell proliferation, 2D activity assay (Cell Titer-Lumi, 72 h). Type of assay: cell-based, human. How it is done:
as §1

Where [4] appears, read: Homo sapiens, PC-3, read-out: 2D inhibitory activity against PC3 cells IC50.
Setting [5] is: read-out: 2D inhibitory activity against PC3 cells IC50.

The values below come from patent publication US20250154134A1, “COMPOUND AS FAK INHIBITOR AND USE THEREOF” (WIGEN BIOMEDICINE TECHNOLOGY (SHANGHAI) CO., LTD., priority 2022, published 2025).

As a reminder, the IC50 is the point on the concentration scale where inhibition reaches its midpoint.

Consider `COc1cc(N2CC3(CCN(C)C3)OCC2=O)ccc1Nc1ncc(C(F)(F)F)c(Oc2cccc3c2C(=O)N(C)C32CC2)n1` (stereo not shown) [Compound 67], for which the IC50 was 5 to 50 nM in assay [1] (Homo sapiens, PC-3, 336 h); below 20 nM in assay [2]; above 2000 nM in assay [3] (setting [4]).
The corresponding values for `COc1cc(C(=O)NC2CCC3(CCN(C)CC3)C2)c(F)cc1Nc1ncc(C(F)(F)F)c(Oc2cccc3c2C(=O)N(C)C32CC2)n1` (stereo not shown) [Compound 18] are 5 to 50 nM, below 20 nM and above 2000 nM.
The like results for `CCc1cc(C(=O)NC2CC3(CCN(C)CC3)C2)ccc1Nc1ncc(C(F)(F)F)c(Oc2cccc3c2C(=O)N(C)C32CC2)n1` [Compound 52] were, in that order, below 5 nM, below 20 nM and above 2000 nM.
`COc1cc(C(=O)NC2COC3(CCN(C)C3)C2)ccc1Nc1ncc(C(F)(F)F)c(Cc2cccc3c2C(=O)N(C)C32CC2)n1` (stereo not shown) [Compound 105]: the half-maximal inhibitory concentration (IC50) in assay [1] (Homo sapiens, PC-3, 336 h) was 5 to 50 nM; in assay [2] it was below 20 nM; in assay [3] (setting [4]), above 2000 nM.
The corresponding values for `COc1cc(N2CCC(N(C)C)CC2)c(F)cc1Nc1ncc(Cl)c(Oc2cccc3c2C(=O)N(C)C32CC2)n1` [Compound 152] are 5 to 50 nM, below 20 nM and above 2000 nM.
Take `COc1cc(N2CC3(CCN(C)CC3)C2)ccc1Nc1ncc(Cl)c(Oc2cccc3c2C(=O)N(C)C32CCCCC2)n1` [Compound 210]: the half-inhibitory concentration (IC50) in assay [1] (Homo sapiens, PC-3, 336 h) was above 50 nM; in assay [2], below 20 nM; in assay [3] (setting [4]) it was above 2000 nM.
The corresponding values for `COc1cc(C2CCN(C)CC2)ccc1Nc1ncc(Br)c(Oc2cccc3c2C(=O)N(C)C32CC2)n1` [Compound 179] are 5 to 50 nM, below 20 nM and above 2000 nM.
The like results for `COc1cc(C(=O)NC2CCC3(CC2)CCN(C)CC3)ccc1Nc1ncc(C(F)(F)F)c(Oc2cccc3c2C(=O)N(C)C32CC2)n1` [Compound 23] were, in that order, 5 to 50 nM, below 20 nM and above 2000 nM.
Take `COc1cc(N2CC3(CCN(C)CC3)C2)c(F)cc1Nc1ncc(Cl)c(Oc2cccc3c2C(=O)N(C)C32CCCCC2)n1` [Compound 211]: the concentration for half-maximal inhibition (IC50) in assay [1] (Homo sapiens, PC-3, 336 h) was above 50 nM; in assay [2], below 20 nM; in assay [3] (setting [4]) it was above 2000 nM.
For `COc1cc(N2C3CC2CN(C)C3)ccc1Nc1ncc(Cl)c(Oc2cccc3c2C(=O)N(C)C32CC2)n1` [Compound 164], the IC50 in assay [1] (Homo sapiens, PC-3, 336 h) was 5 to 50 nM; in assay [2], below 20 nM; in assay [3] (setting [4]) it was above 2000 nM.
Take `COc1cc(N2CC3(CCN(C)CC3)C2)c(F)cc1Nc1ncc(Cl)c(Oc2cccc3c2C(=O)N(C)C32COC2)n1` [Compound 217]: the half-maximal inhibitory concentration (IC50) is 5 to 50 nM in assay [1] (Homo sapiens, PC-3, 336 h); below 20 nM in assay [2]; above 2000 nM in assay [3] (setting [4]).
The corresponding values for `COc1cc(C(=O)NC2CCC3(CC2)CCN3C)ccc1Nc1ncc(C(F)(F)F)c(Cc2cccc3c2C(=O)N(C)C32CC2)n1` (stereo not shown) [Compound 109] are 5 to 50 nM, below 20 nM and above 2000 nM.
The like results for `COc1cc(C(=O)NC2CCC3(CC2)CCN(C)C3)ccc1Nc1ncc(C(F)(F)F)c(Cc2cccc3c2C(=O)N(C)C32CC2)n1` (stereo not shown) [Compound 106] were, in that order, 5 to 50 nM, below 20 nM and above 2000 nM.
The like results for `COc1cc(N2CC(N3CC(N(C)C)C3)C2)ccc1Nc1ncc(Cl)c(Oc2cccc3c2C(=O)N(C)C32CC2)n1` [Compound 158] were, in that order, 5 to 50 nM, below 20 nM and above 2000 nM.
Regarding `COc1cc(N2CC3(CCN(C)CC3)C2)ccc1Nc1ncc(Cl)c(Oc2cccc3c2C(=O)N(C)C32CCCC2)n1` [Compound 207], the half-inhibitory concentration (IC50) in assay [1] (Homo sapiens, PC-3, 336 h) is 5 to 50 nM; in assay [2], below 20 nM; in assay [3] (setting [4]), above 2000 nM.
The like results for `COc1cc(N2CCC3(CCN(C)CC3)C2=O)ccc1Nc1ncc(C(F)(F)F)c(Oc2cccc3c2C(=O)N(C)C32CC2)n1` [Compound 62] were, in that order, 5 to 50 nM, below 20 nM and above 2000 nM.
The corresponding values for `COc1cc(N2CC3(CCN(C)CC3)CC2=O)ccc1Nc1ncc(C(F)(F)F)c(Oc2cccc3c2C(=O)N(C)C32CC2)n1` [Compound 63] are below 5 nM, below 20 nM and above 2000 nM.
The like results for `COc1cc(C(=O)NC2CCC3(CC2)CCN(C)CC3)c(F)cc1Nc1ncc(C(F)(F)F)c(Oc2cccc3c2C(=O)N(C)C32CC2)n1` [Compound 22] were, in that order, 5 to 50 nM, below 20 nM and above 2000 nM.
For the molecule `COc1cc(C(=O)NC2CC3(CCN(C)CC3)C2)c(F)cc1Nc1ncc(Cl)c(Oc2cccc3c2C(=O)N(C)C32CCC2)n1` [Compound 204], the concentration for half-maximal inhibition (IC50) in assay [1] (Homo sapiens, PC-3, 336 h) was below 5 nM; in assay [2], below 20 nM; in assay [3] (setting [4]), above 2000 nM.
The corresponding values for `COc1cc(C(=O)NC2CC3(CCN(C)CC3)C2)c(F)cc1Nc1ncc(C#N)c(Oc2cccc3c2C(=O)N(C)C32CC2)n1` [Compound 194] are below 5 nM, below 20 nM and above 2000 nM.
Turning to `Cc1c(Nc2ncc(C(F)(F)F)c(Oc3cccc4c3C(=O)N(C)C43CC3)n2)nn2c1CCC2` [Compound 93], the IC50 in assay [1] (Homo sapiens, PC-3, 336 h) is 5 to 50 nM; in assay [2], below 20 nM; in assay [3] (setting [4]) it was above 2000 nM.
Turning to `COc1cc(N2CCN(CC(=O)N(C)C)CC2)ccc1Nc1ncc(C(F)(F)F)c(Oc2cccc3c2C(=O)N(C)C32CC2)n1` [Compound 75, 2-(4-(3-methoxy-4-((4-((2′-methyl-3′-oxospiro[cyclopropane-1,1′-isoindolin]-4′-yl)oxy)-5-(trifluoromethyl)pyrimidin-2-yl)amino)phenyl)piperazin-1-yl)-N,N-dimethylacetamide], the IC50 in assay [1] (Homo sapiens, PC-3, 336 h) was below 5 nM; in assay [2], below 20 nM; in assay [3] (setting [4]) it was above 2000 nM.
The corresponding values for `COc1cc(N2CC3CN(C)CC3C2)ccc1Nc1ncc(Cl)c(Oc2cccc3c2C(=O)N(C)C32CC2)n1` (stereo not shown) [Compound 169] are below 5 nM, below 20 nM and above 2000 nM.
Turning to `COc1cc(C(=O)NC2CCNCC2)ccc1Nc1ncc(C(F)(F)F)c(Oc2cccc3c2C(=O)N(C)C32CC2)n1` [Compound 35, 3-Methoxy-4-((4-((2′-methyl-3′-oxospiro[cyclopropane-1,1′-isoindolin]-4′-yl)oxy)-5-(trifluoromethyl)pyrimidin-2-yl)amino)-N-(piperidin-4-yl)benzamide], the IC50 is below 5 nM in assay [1] (Homo sapiens, PC-3, 336 h) and above 2000 nM in assay [3] (setting [4]).
On to `COc1cc(N2CC3CCN(C)C3C2)ccc1Nc1ncc(Cl)c(Oc2cccc3c2C(=O)N(C)C32CC2)n1` (stereo not shown) [Compound 171], for which the results for the IC50 in assay [1] and in assay [3] (setting [5]) were 5 to 50 nM and above 2000 nM, respectively.
Turning to `COc1cc(C(=O)NC2CCN(C)CC2)c(F)cc1Nc1ncc(Cl)c(Oc2cccc3c2C(=O)N(C)C32CCCC2)n1` [Compound 209], the IC50 is above 50 nM in assay [1] (Homo sapiens, PC-3, 336 h) and above 2000 nM in assay [3] (setting [4]).
The like results for `COc1cc(C(=O)NC2(C)CCN(C)CC2)ccc1Nc1ncc(Cl)c(Oc2cccc3c2C(=O)N(C)C32CC2)n1` [Compound 118] were, in that order, 5 to 50 nM and above 2000 nM.
Regarding `COc1cc(C(=O)N2CCC3(CCN(C)C3)C2)ccc1Nc1ncc(C(F)(F)F)c(Oc2cccc3c2C(=O)N(C)C32CC2)n1` (stereo not shown) [Compound 58], the 50% inhibitory concentration (IC50) in assay [1] was 5 to 50 nM; in assay [3] (setting [5]), above 2000 nM.
